# In PubChem BioAssay (NCI):
#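 Briefly, cells in 96-well plates were exposed to five compound concentrations for 48 h, and endpoints were estimated by linear interpolation. TGI denotes the concentration required for complete inhibition of growth.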
# Legend:
# Test in all cases: growth of human tumour cells (NCI), 48 h
# A549 NSCLC = system: A549 NSCLC
# OVCAR-4 ovarian = system: OVCAR-4 ovarian
# 786-0 renal = system: 786-0 renal
# K-562 leukemia = system: K-562 leukemia
# ACHN renal = system: ACHN renal
# HOP-62 NSCLC = system: HOP-62 NSCLC
# A498 renal = system: A498 renal
# OVCAR-5 ovarian = system: OVCAR-5 ovarian
# HL-60(TB) leukemia = system: HL-60(TB) leukemia
# DU-145 prostate = system: DU-145 prostate
# CCRF-CEM leukemia = system: CCRF-CEM leukemia
# SK-MEL-5 melanoma = system: SK-MEL-5 melanoma
# SF-295 CNS = system: SF-295 CNS
# LOX IMVI melanoma = system: LOX IMVI melanoma
# MDA-MB-231 breast = system: MDA-MB-231 breast
# SNB-19 CNS = system: SNB-19 CNS
# EKVX NSCLC = system: EKVX NSCLC
# HOP-92 NSCLC = system: HOP-92 NSCLC
# MDA-N = system: MDA-N
# MOLT-4 leukemia = system: MOLT-4 leukemia
# M14 melanoma = system: M14 melanoma
# RPMI-8226 leukemia = system: RPMI-8226 leukemia
# TK-10 renal = system: TK-10 renal
# UACC-62 melanoma = system: UACC-62 melanoma
# OVCAR-3 ovarian = system: OVCAR-3 ovarian
# NCI-H23 lung = system: NCI-H23 lung
# MALME-3M melanoma = system: MALME-3M melanoma
# COLO 205 colon = system: COLO 205 colon
# SR leukemia = system: SR leukemia
# PC-3 prostate = system: PC-3 prostate
# SNB-75 CNS = system: SNB-75 CNS
# SF-268 CNS = system: SF-268 CNS
# MDA-MB-435 = system: MDA-MB-435
# HS 578T breast = system: HS 578T breast
# BT-549 breast = system: BT-549 breast
# CAKI-1 renal = system: CAKI-1 renal
# OVCAR-8 ovarian = system: OVCAR-8 ovarian
# UO-31 renal = system: UO-31 renal
# KM12 colon = system: KM12 colon
# RXF 393 renal = system: RXF 393 renal
# HCT-15 colon = system: HCT-15 colon
# T-47D breast = system: T-47D breast
# NCI-H460 lung = system: NCI-H460 lung
# SW-620 colon = system: SW-620 colon
# U251 CNS = system: U251 CNS
# SF-539 CNS = system: SF-539 CNS
# IGROV1 ovarian = system: IGROV1 ovarian
# HT29 colon = system: HT29 colon
# SK-MEL-2 melanoma = system: SK-MEL-2 melanoma
# HCT-116 colon = system: HCT-116 colon
# SK-MEL-28 melanoma = system: SK-MEL-28 melanoma
# SK-OV-3 ovarian = system: SK-OV-3 ovarian
# NCI-H522 lung = system: NCI-H522 lung
# MCF7 breast = system: MCF7 breast
# SN12C renal = system: SN12C renal
# NCI/ADR-RES ovarian = system: NCI/ADR-RES ovarian
# HCC-2998 colon = system: HCC-2998 colon
# NCI-H226 lung = system: NCI-H226 lung
# UACC-257 melanoma = system: UACC-257 melanoma
structure (smiles),measurement,setting,value
CC(C)=CC(Cc1ccccc1)S(=O)(=O)c1nc2ccccc2s1 (stereo unspecified),TGI,A549 NSCLC,60.1 µM
same,TGI,OVCAR-4 ovarian,37.1 µM
same,TGI,786-0 renal,33.1 µM
same,TGI,K-562 leukemia,33.4 µM
same,TGI,ACHN renal,42.9 µM
same,TGI,HOP-62 NSCLC,64.3 µM
same,TGI,A498 renal,35.5 µM
same,TGI,OVCAR-5 ovarian,36.7 µM
same,TGI,HL-60(TB) leukemia,9.62 µM
same,TGI,DU-145 prostate,31.5 µM
same,TGI,CCRF-CEM leukemia,7.49 µM
same,TGI,SK-MEL-5 melanoma,27.1 µM
same,TGI,SF-295 CNS,66.6 µM
same,TGI,LOX IMVI melanoma,11.9 µM
same,TGI,MDA-MB-231 breast,52 µM
same,TGI,SNB-19 CNS,32 µM
same,TGI,EKVX NSCLC,41.7 µM
same,TGI,HOP-92 NSCLC,41.7 µM
same,TGI,MDA-N,29.7 µM
same,TGI,MOLT-4 leukemia,7.95 µM
same,TGI,M14 melanoma,31.2 µM
same,TGI,RPMI-8226 leukemia,35 µM
same,TGI,TK-10 renal,35.8 µM
same,TGI,UACC-62 melanoma,46.5 µM
same,TGI,OVCAR-3 ovarian,29.2 µM
same,TGI,NCI-H23 lung,48.8 µM
same,TGI,MALME-3M melanoma,32.1 µM
same,TGI,COLO 205 colon,34.9 µM
same,TGI,SR leukemia,5.24 µM
same,TGI,PC-3 prostate,31.9 µM
same,TGI,SNB-75 CNS,41.1 µM
same,TGI,SF-268 CNS,36.5 µM
same,TGI,MDA-MB-435,32.4 µM
same,TGI,HS 578T breast,> 80 µM
same,TGI,BT-549 breast,38.6 µM
same,TGI,CAKI-1 renal,22.1 µM
same,TGI,OVCAR-8 ovarian,35.1 µM
same,TGI,UO-31 renal,27.5 µM
same,TGI,KM12 colon,35.8 µM
same,TGI,RXF 393 renal,41.9 µM
same,TGI,HCT-15 colon,49.5 µM
same,TGI,T-47D breast,> 67.2 µM
same,TGI,NCI-H460 lung,50.1 µM
same,TGI,SW-620 colon,37.2 µM
same,TGI,U251 CNS,29.4 µM
same,TGI,SF-539 CNS,30.8 µM
same,TGI,IGROV1 ovarian,62.7 µM
same,TGI,HT29 colon,41.7 µM
same,TGI,SK-MEL-2 melanoma,28.5 µM
same,TGI,HCT-116 colon,28.3 µM
same,TGI,SK-MEL-28 melanoma,32.3 µM
same,TGI,SK-OV-3 ovarian,47.5 µM
same,TGI,NCI-H522 lung,29 µM
same,TGI,MCF7 breast,31.5 µM
same,TGI,SN12C renal,31.8 µM
same,TGI,NCI/ADR-RES ovarian,50 µM
same,TGI,HCC-2998 colon,33.6 µM
same,TGI,NCI-H226 lung,29.6 µM
same,TGI,UACC-257 melanoma,54.2 µM
Cc1cccc2c1c(=O)c1c(O)c3c(cc1n2C)OC(C)(C)C=C3,TGI,A549 NSCLC,> 10 µM
same,TGI,OVCAR-4 ovarian,> 10 µM
same,TGI,786-0 renal,> 10 µM
same,TGI,K-562 leukemia,> 10 µM
same,TGI,ACHN renal,> 10 µM
same,TGI,HOP-62 NSCLC,> 10 µM
same,TGI,A498 renal,> 10 µM
same,TGI,OVCAR-5 ovarian,> 10 µM
same,TGI,HL-60(TB) leukemia,> 10 µM
same,TGI,DU-145 prostate,> 10 µM
same,TGI,CCRF-CEM leukemia,> 10 µM
same,TGI,SK-MEL-5 melanoma,> 10 µM
same,TGI,SF-295 CNS,> 10 µM
same,TGI,LOX IMVI melanoma,> 10 µM
same,TGI,MDA-MB-231 breast,> 10 µM
same,TGI,SNB-19 CNS,> 10 µM
same,TGI,EKVX NSCLC,> 10 µM
same,TGI,MDA-N,> 10 µM
same,TGI,MOLT-4 leukemia,> 10 µM
same,TGI,M14 melanoma,> 10 µM
same,TGI,RPMI-8226 leukemia,> 10 µM
same,TGI,TK-10 renal,> 10 µM
same,TGI,UACC-62 melanoma,> 10 µM
same,TGI,OVCAR-3 ovarian,> 10 µM
same,TGI,NCI-H23 lung,> 10 µM
same,TGI,MALME-3M melanoma,> 10 µM
same,TGI,COLO 205 colon,> 10 µM
same,TGI,SR leukemia,> 10 µM
same,TGI,PC-3 prostate,> 10 µM
same,TGI,SNB-75 CNS,> 10 µM
same,TGI,SF-268 CNS,> 10 µM
same,TGI,MDA-MB-435,> 10 µM
same,TGI,HS 578T breast,> 10 µM
same,TGI,BT-549 breast,> 10 µM
same,TGI,CAKI-1 renal,> 10 µM
same,TGI,OVCAR-8 ovarian,> 10 µM
same,TGI,KM12 colon,> 10 µM
same,TGI,RXF 393 renal,> 10 µM
same,TGI,HCT-15 colon,> 10 µM
same,TGI,T-47D breast,> 10 µM
same,TGI,NCI-H460 lung,> 10 µM
same,TGI,SW-620 colon,> 10 µM
same,TGI,U251 CNS,> 10 µM
same,TGI,SF-539 CNS,> 10 µM
same,TGI,IGROV1 ovarian,> 10 µM
same,TGI,HT29 colon,> 10 µM
same,TGI,SK-MEL-2 melanoma,> 10 µM
same,TGI,HCT-116 colon,> 10 µM
same,TGI,SK-MEL-28 melanoma,> 10 µM
same,TGI,SK-OV-3 ovarian,> 10 µM
same,TGI,NCI-H522 lung,> 10 µM
same,TGI,MCF7 breast,> 10 µM
same,TGI,SN12C renal,> 10 µM
same,TGI,NCI/ADR-RES ovarian,> 10 µM
same,TGI,HCC-2998 colon,> 10 µM
same,TGI,NCI-H226 lung,> 10 µM
same,TGI,UACC-257 melanoma,> 10 µM
